Source: patent publication US8846329B1, “Microorganisms for producing organic acids” (Wisconsin Alumni Research Foundation, priority 2012, dated 2014)
≈ marks a conversion by molar mass, not a printed value. Like-named read-outs stand apart in the source and are kept apart here.

How the values were obtained:
[1] = test system: Synechocystis sp. PCC 6803; assay: Minimum inhibitory concentration of organic acids; type: cell-based; conditions: for MIC: Synechocystis; for Minimum inhibitory concentration: Table 3
Source text: (§1) One aspect of the increased tolerance to organic acids is an increase in the minimal inhibitory concentration (MIC) of a particular organic acid compared to a corresponding microorganism. MIC is the lowest concentration of an agent that will inhibit growth of a microorganism. An MIC can be determined by titrating the agent in the growth medium of the microorganism. The lowest concentration of the agent in which the microorganism is no longer able to grow is the MIC. Methods of culturing microorganisms and of detecting their growth are well known in the art and are not discussed in detail herein.
(§2) Because of this, the toxicity of organic acids generally increases with the hydrophobicity of the compound [35]. The minimum inhibitory concentrations (MIC) for PCC 7002, Synechococcus sp. PCC 7942, and Synechocystis sp. PCC 6803 were determined for acrylic acid, 3HP, and propionic acid at a pH of about 8 (Table 1). […] The low MIC for acrylic acid explains why cultures grown with DMSP become growth inhibited. Cultures with DMSP only show growth inhibition when the accumulating acrylic acid concentration reaches inhibitory concentrations.
(§3) Homologous genes were identified in the cyanobacteria Synechocystis sp. PCC 6803 (s110542; SEQ ID NOS:3 and 4) and Synechococcus sp. PCC 7942 (SYNPCC7942—1342; SEQ ID NOS:5 and 6). […] When selecting for growth of Synechocystis sp. PCC 6803 on 50 μM acrylic acid, the mutation frequency was 2×10^−6.

PCC 7002 acsA::aadA = assay: microbe, parasite or virus in culture; type: cell-based, Synechococcus sp. PCC 7002; conditions: for Increase in MIC on functional deletion of the acsA gene product: Synechococcus sp. PCC 7002, pH of about 8
Protocol: This hypothesis was tested by creating a knockout mutant of the acsA gene. This knockout was created by transforming wild type PCC 7002 with a DNA construct that would replace the acsA gene with an antibiotic resistance marker through homologous recombination. The resulting mutant, ΔacsA, was challenged with concentrations of acrylic acid, 3HP, and propionic acid above WT PCC 7002 MIC levels.
Deletion and complementation studies were performed in various Synechococcus spp. and Synechocystis spp. Replacement of the gene acsA in Synechococcus sp.

[2] = test system: Synechococcus sp. PCC 7942; assay: Minimum inhibitory concentration of organic acids; type: cell-based; conditions: for MIC: Synechococcus; for Minimum inhibitory concentration: Table 3
Source text: as §1, §2

[3] = test system: Synechococcus sp. PCC 7002; assay: Minimum inhibitory concentration of organic acids / growth inhibition; type: cell-based; conditions: for MIC: Synechococcus; for Minimum inhibitory concentration: Table 3
Source text: as §1
(§4) The minimum inhibitory concentrations (MIC) for PCC 7002, Synechococcus sp. PCC 7942, and Synechocystis sp. PCC 6803 were determined for acrylic acid, 3HP, and propionic acid at a pH of about 8 (Table 1).

AcsA = assay: Acyl-CoA ligase activity assay; type: biochemical, Synechococcus sp. PCC 7002; conditions: 2 mM organic acid, 500 nM AcsA, CoA consumed in 4 min relative to acetate
Protocol: Acyl-CoA ligase purification: Escherichia coli BL21 containing plasmid pET28b with acsA were grown in 50 mL of LB to an OD600 nm of 0.6 and induced with 1 mM IPTG. The induced culture was shaken at 37° C. for 3 hrs. The culture was centrifuged and the resulting cell pellet was frozen at −20° C. The cell pellet was processed with Novagen BugBuster Protein Extraction Reagent (Part No. 70584-3). The resulting soluble protein fraction was used for His-tag purification using Ni-NTA agarose beads (Qiagen) and Pierce 0.8-mL centrifugation columns (Part No. 89868). Washes were done with 50 mM NaH2PO4, 300 mM NaCl, and 30 mM imidizole pH 8.0. The his-tagged protein was eluted with 50 mM NaH2PO4, 300 mM NaCl, and 250 mM imidizole pH 8.0. The insoluble fraction from the protein extraction was washed twice with BugBuster reagent followed by incubation with 400 μL 8M urea, 100 mM Tris-HCl, and 100 mM β-mercaptoethanol pH 8.2 for 30 min. The resulting solution was centrifuged at 16,000×g and the supernatant was collected. Protein fractions were run on a SDS-PAGE gel. His-tag purified protein fractions used in the acyl-CoA ligase assay were concentrated and buffered exchanged using an Amicon Ultra-4 centrifugation column. The buffer used for enzyme storage contained 0.1M NaH2PO4, 1 mM EDTA, and 10% v/v glycerol.
Acyl-CoA ligase activity assay: Acyl-CoA ligase activity was determined by measuring the loss of free Coenzyme A (CoA) over time using Ellman's reagent. (Riddles P W, Blakeley R L, & Zerner B (1979) Ellman's reagent: 5,5′-dithiobis(2-nitrobenzoic acid)—a reexamination. Analytical Biochemistry 94(1):75-81.) The enzyme reaction contained 10 mM ATP, 8 mM MgCl2, 3 mM CoA, 0.1 M NaH2PO4, 1 mM EDTA, and 2 mM of the organic acid species. The concentration of AcsA in the reaction was 500 nM. Relative activity was determined by the amount of CoA consumed in 4 min relative to an acetate control.

[4] = test system: PCC 7002 acsA:BC glpK::acsA aadA; assay: Minimum inhibitory concentration, acsA complementation strain; type: cell-based, Synechococcus sp. PCC 7002; conditions: Synechococcus, read-out: Minimum inhibitory concentration
Protocol: (§5) Deletion and complementation studies were performed in various Synechococcus spp. and Synechocystis spp. Replacement of the gene acsA in Synechococcus sp. […] An identical level of increase was observed when acsA was replaced with a 20 base-pair barcode sequence. This phenotype was complemented in an acsA deletion strain by expression of acsA under the native promoter in another locus on the chromosome (glpK).

PCC 6803 sll0542::KmR = assay: Minimum inhibitory concentration, deletion strain; type: cell-based, Synechocystis sp. PCC 6803; conditions: Synechocystis; Table 3
Protocol: as §5, §3

[5] = cited from earlier work
PCC 7002 A^+ = assay: Minimum inhibitory concentration, spontaneous acrylic acid-tolerant mutant; type: cell-based, Synechococcus sp. PCC 7002
Protocol: as §4

[6] = test system: PCC 7002 acsA::BC glpK::acsAW49L aadA; assay: Minimum inhibitory concentration, acsAW49L complementation strain; type: cell-based, Synechococcus sp. PCC 7002; conditions: Synechococcus, read-out: Minimum inhibitory concentration
Protocol: as §5

PCC 7002 acsA::BC = assay: Minimum inhibitory concentration, acsA barcode replacement strain; type: cell-based, Synechococcus sp. PCC 7002; conditions: Synechococcus, read-out: Minimum inhibitory concentration
Protocol: as §5

[7] = SP.PCC6803, read-out: Minimum inhibitory concentration
[8] = SP.PCC7942, read-out: Minimum inhibitory concentration
[9] = SP.PCC7002, read-out: Minimum inhibitory concentration

SMILES	Minimum inhibitory concentration [1] [µM]	Increase in MIC on functional deletion of the acsA gene product (PCC 7002 acsA::aadA) [fold]	Minimum inhibitory concentration [2] [µM]	Minimum inhibitory concentration [3] [µM]	Acyl-CoA ligase activity of AcsA towards substrate (AcsA)	MIC [1, 7] [µM]	MIC [4] [µM]	MIC [2, 8] [µM]	MIC (PCC 6803 sll0542::KmR) [µM]	MIC [3, 9] [µM]	further results
CCC(=O)O [propionic acid]	250 (≈ 18.5 µg/mL)	≥ 100	250 (≈ 18.5 µg/mL)	4000 (≈ 296 µg/mL)	has an activity						MIC ([1]; SP.PCC6803, Table 1, pH of about 8, no increase in OD730, read-out: Minimum inhibitory concentration): 250 µM (≈ 18.5 µg/mL); MIC ([2]; SP.PCC7942, Table 1, pH of about 8, no increase in OD730, read-out: Minimum inhibitory concentration): 250 µM (≈ 18.5 µg/mL); MIC ([3]; SP.PCC7002, Table 1, pH of about 8, no increase in OD730, read-out: Minimum inhibitory concentration): 4000 µM (≈ 296 µg/mL)
CC(=O)O [acetate, reference compound]					has an activity						
O=C(O)CCO [3HP, 3-hydroxypropionic acid]		≥ 26	2000 (≈ 180 µg/mL)	10000 (≈ 901 µg/mL)	has an activity	> 35000	15000 (≈ 1350 µg/mL)	2000 (≈ 180 µg/mL)	< 50000	10000 (≈ 901 µg/mL)	Concentration at which the ΔacsA mutant was able to grow without inhibition (PCC 7002 acsA::aadA; ΔacsA mutant): > 500 mM
C=CC(=O)O [acrylic acid]	50 (≈ 3.6 µg/mL)	≥ 2.800	3 (≈ 0.216 µg/mL)	25 (≈ 1.8 µg/mL)	has an activity	50 (≈ 3.6 µg/mL)	15 (≈ 1.08 µg/mL)	3 (≈ 0.216 µg/mL)	70000 (≈ 5040 µg/mL)	25 (≈ 1.8 µg/mL)	pKa [5]: 4.35; Increase in tolerance over WT PCC 7002 MIC values (PCC 7002 A^+; PCC 7002 A^+ vs WT): about 280 fold; MIC (PCC 7002 A^+; Synechococcus, Table 1, strain isolated from agar plate containing 5 mM acrylic acid): 7000 µM (≈ 504 µg/mL); MIC (PCC 7002 acsA::aadA; Synechococcus, read-out: Minimum inhibitory concentration): 70000 µM; MIC [6]: 7000 µM (≈ 504 µg/mL); Inhibitory concentration ([3]; growth by OD730): less than 5 mM; pH dependence of toxicity ([3]; toxicity increasing with decreasing pH): pH dependent; MIC (PCC 7002 acsA::BC): 70000 µM (≈ 5040 µg/mL)
